Measurements published in patent publication US12582621B2, “Compositions and methods for delivering pharmaceutical agents” (Arizona Board of Regents on Behalf of the University of …, priority 2020, dated 2026).

System: radiation-induced oral mucosistis
Test: Fractionated radiation-induced oral mucositis in mice, topical suramin
Type: in vivo, C57BL/6J mice
Conditions: 8 Gy on 5 consecutive days, topical suramin 50 mg/ml solution by intraoral swab twice daily, assessed day 7
Experimental: The head and neck region of six-week-old male and female C57BL/6J mice (4-5 mice/group/sex) were exposed to collimated fractionated radiation (8 Gy on 5 consecutive days). Topically applied suramin (50 mg/ml solution) was applied on day 1 of radiation by intraoral swab and twice daily throughout the experimental period. On day 7, all mice were euthanized and tongues were assessed for development and extent of oral mucositis ulceration on the dorsal surface of the tongue using 1% toluidine blue. Epithelial erosion and ulceration were visible as a deep blue color and ulceration area was measured using NIH Image J software. Histopathological grading (0-4 scale) using an established scale was used to assess OM staging and epithelial thinning.

Cc1ccc(C(=O)Nc2ccc(S(=O)(=O)O)c3cc(S(=O)(=O)O)cc(S(=O)(=O)O)c23)cc1NC(=O)c1cccc(NC(=O)Nc2cccc(C(=O)Nc3cc(C(=O)Nc4ccc(S(=O)(=O)O)c5cc(S(=O)(=O)O)cc(S(=O)(=O)O)c45)ccc3C)c2)c1 [suramin, Suramin] was tested, and the “effect on radiation-induced oral mucositis” value was “diminishes radiation-induced oral mucosistis”.
